# Reference: patent publication US20150197492A1, “NOVEL INDENO[1,2-c]QUINOLIN-11-ONE DERIVATIVES, PREPARATION METHOD AND APPLICATION THEREOF” (National Defense Medical Center, priority 2014, published 2015)
# Columns and labels:
# Type in all cases: cell-based
# [1] = test system: 55 to 60 cancer cell lines; details: 10 μM
# [2] = test system: CCRF-CEM; assay: cells
# [3] = test system: HL-60 (TB); assay: cells
# [4] = test system: K-562; assay: cells
# [5] = test system: RPMI-8226; assay: cells
# [6] = test system: SR; assay: cells
# [7] = test system: A549/ATCC; assay: cells
# [8] = test system: NCI-H226; assay: cells
# [9] = test system: NCI-H23; assay: cells
# [10] = test system: NCI-H322M; assay: cells
# [11] = test system: NCI-H522; assay: cells
# [12] = test system: COLO 205; assay: cells
# [13] = test system: HCC-2998; assay: cells
# [14] = test system: SW-620; assay: cells
# [15] = test system: SF-268; assay: cells
# [16] = test system: SF-295; assay: cells
# [17] = test system: SF-539; assay: cells
# [18] = test system: SNB-19; assay: cells
# [19] = test system: U251; assay: cells; details: CNS Cancer U251
# [20] = test system: LOX IMVI; assay: cells; details: Melanoma LOX IMV1
# [21] = test system: M14; assay: cells
# [22] = test system: MDA-MB-435; assay: cells
# [23] = test system: SK-MEL-5; assay: cells
# [24] = test system: UACC-257; assay: cells
# [25] = test system: UACC-62; assay: cells
# [26] = test system: IGROV1; assay: cells
# [27] = test system: 786-0; assay: cells
# [28] = test system: A498; assay: cells
# [29] = test system: ACHN; assay: cells
# [30] = test system: CAKI-1; assay: cells
# [31] = test system: TK-10; assay: cells; details: TK-10 (Renal Cancer), 10 μM, 48 hours
# [32] = test system: PC-3; assay: cells
# [33] = test system: DU-145; assay: cells
# [34] = test system: BT-549; assay: cells
# [35] = Homo sapiens, K562, Leukemia K-562
# [36] = Homo sapiens, Non-Small Cell Lung Cancer A549/ATCC
# [37] = Homo sapiens, Non-Small Cell Lung Cancer NCI-H23
# [38] = Homo sapiens, Colon Cancer COLO 205
# [39] = Homo sapiens, Colon Cancer SW-620
# [40] = Homo sapiens, CNS Cancer SF-268
# [41] = Homo sapiens, CNS Cancer SF-295
# [42] = Homo sapiens, CNS Cancer SF-539
# [43] = Homo sapiens, CNS Cancer SNB-19
smiles,measurement,setting,value
"O=C1c2cc(Cl)ccc2-c2c(N3CCNCC3)nc3ccccc3c21 [SJ-10, 9-Chloro-6-(piperazin-1-yl)-11H-indeno[1,2-c]quinolin-11-one]","inhibition effect in different cancer cell lines (summary of the NCI data, in words)",[1]; 48 hours,preferable inhibition effects in leukemia and colon cancer cells
same,Mean (mean growth percentage of the tested cancer cell lines),"[1]; 48 hours, all tested cell lines",−14.37%
same,cytotoxicity in the first stage (in words),[1]; basis for selection for the five-dose test,potential cytotoxicity
same,growth percentage,"[2]; CCRF-CEM (Leukemia), 10 μM, 48 hours",-35.45%
same,GI50,"[2]; Homo sapiens, Leukemia CCRF-CEM",6.32 µM
same,CC50,"[2]; Homo sapiens, Leukemia CCRF-CEM, read-out: LC50 (the source's name)",> 100 µM
same,TGI,[2]; Leukemia CCRF-CEM,>100 µM
same,growth percentage,"[3]; HL-60 (TB) (Leukemia), 10 μM, 48 hours",-38.36%
same,GI50,"[3]; Homo sapiens, Leukemia HL-60(TB)",36.9 µM
same,CC50,"[3]; Homo sapiens, Leukemia HL-60(TB), read-out: LC50 (the source's name)",> 100 µM
same,TGI,[3]; Leukemia HL-60(TB),>100 µM
same,GI50,[4]; [35],7.8 µM
same,"LC50 (lethal concentration, 50% cell kill)",[4]; [35],> 100 µM
same,growth percentage,"[4]; K-562 (Leukemia), 10 μM, 48 hours",-65.71%
same,TGI,[4]; Leukemia K-562,>100 µM
same,GI50,"[5]; Homo sapiens, Leukemia RPMI-8226",7.48 µM
same,CC50,"[5]; Homo sapiens, Leukemia RPMI-8226, read-out: LC50 (the source's name)",> 100 µM
same,TGI,[5]; Leukemia RPMI-8226,>100 µM
same,growth percentage,"[5]; RPMI-8226 (Leukemia), 10 μM, 48 hours",-43.57%
same,GI50,"[6]; Homo sapiens, Leukemia SR",3.09 µM
same,LC50 (50% lethal concentration),"[6]; Homo sapiens, Leukemia SR",> 100 µM
same,TGI,[6]; Leukemia SR,>100 µM
same,growth percentage,"[6]; SR (Leukemia), 10 μM, 48 hours",-55.19%
same,growth percentage,"[7]; A549/ATCC (Non-Small Cell Lung Cancer), 10 μM, 48 hours",18.70%
same,GI50,[7]; [36],4.87 µM
same,LC50 (50% lethal concentration),[7]; [36],> 100 µM
same,TGI,[7]; Non-Small Cell Lung Cancer A549/ATCC,>100 µM
same,GI50,"[8]; Homo sapiens, Non-Small Cell Lung Cancer NCI-H226",7.77 µM
same,CC50,"[8]; Homo sapiens, Non-Small Cell Lung Cancer NCI-H226, read-out: LC50 (the source's name)",> 100 µM
same,growth percentage,"[8]; NCI-H226 (Non-Small Cell Lung Cancer), 10 μM, 48 hours",49.94%
same,TGI,[8]; Non-Small Cell Lung Cancer NCI-H226,>100 µM
same,GI50,[9]; [37],6.65 µM
same,LC50,[9]; [37],> 100 µM
same,growth percentage,"[9]; NCI-H23 (Non-Small Cell Lung Cancer), 10 μM, 48 hours",49.19%
same,TGI,[9]; Non-Small Cell Lung Cancer NCI-H23,>100 µM
same,GI50,"[10]; Homo sapiens, Non-Small Cell Lung Cancer NCI-H322M",5.62 µM
same,CC50,"[10]; Homo sapiens, Non-Small Cell Lung Cancer NCI-H322M, read-out: LC50 (the source's name)",> 100 µM
same,growth percentage,"[10]; NCI-H322M (Non-Small Cell Lung Cancer), 10 μM, 48 hours",35.89%
same,TGI,[10]; Non-Small Cell Lung Cancer NCI-H322M,>100 µM
same,GI50,"[11]; Homo sapiens, Non-Small Cell Lung Cancer NCI-H522",3.98 µM
same,CC50,"[11]; Homo sapiens, Non-Small Cell Lung Cancer NCI-H522, read-out: LC50 (the source's name)",> 100 µM
same,growth percentage,"[11]; NCI-H522 (Non-Small Cell Lung Cancer), 10 μM, 48 hours",18.08%
same,TGI,[11]; Non-Small Cell Lung Cancer NCI-H522,>100 µM
same,growth percentage,"[12]; COLO 205 (Colon Cancer), 10 μM, 48 hours",-81.49%
same,TGI,[12]; Colon Cancer COLO 205,>100 µM
same,GI50,[12]; [38],12.2 µM
same,LC50 (50% lethal concentration),[12]; [38],> 100 µM
same,TGI,[13]; Colon Cancer HCC-2998,>100 µM
same,growth percentage,"[13]; HCC-2998 (Colon Cancer), 10 μM, 48 hours",-55.83%
same,GI50,"[13]; Homo sapiens, Colon Cancer HCC-2998",30.9 µM
same,CC50,"[13]; Homo sapiens, Colon Cancer HCC-2998, read-out: LC50 (the source's name)",> 100 µM
same,TGI,[14]; Colon Cancer SW-620,>100 µM
same,GI50,[14]; [39],5.14 µM
same,LC50 (concentration killing 50% of cells),[14]; [39],> 100 µM
same,growth percentage,"[14]; SW-620 (Colon Cancer), 10 μM, 48 hours",-73.67%
same,TGI,[15]; CNS Cancer SF-268,>100 µM
same,GI50,[15]; [40],8.71 µM
same,LC50,[15]; [40],> 100 µM
same,growth percentage,"[15]; SF-268 (CNS Cancer), 10 μM, 48 hours",34.33%
same,TGI,[16]; CNS Cancer SF-295,>100 µM
same,GI50,[16]; [41],7.79 µM
same,LC50 (concentration killing 50% of cells),[16]; [41],> 100 µM
same,growth percentage,"[16]; SF-295 (CNS Cancer), 10 μM, 48 hours",23.75%
same,TGI,[17]; CNS Cancer SF-539,>100 µM
same,GI50,[17]; [42],14.2 µM
same,LC50 (concentration giving 50% net cell kill),[17]; [42],> 100 µM
same,growth percentage,"[17]; SF-539 (CNS Cancer), 10 μM, 48 hours",36.91%
same,TGI,[18]; CNS Cancer SNB-19,>100 µM
same,GI50,[18]; [43],8.27 µM
same,LC50,[18]; [43],> 100 µM
same,growth percentage,"[18]; SNB-19 (CNS Cancer), 10 μM, 48 hours",67.25%
same,TGI,[19],>100 µM
same,GI50,"[19]; Homo sapiens, U-251",4.82 µM
same,LC50 (concentration killing 50% of cells),"[19]; Homo sapiens, U-251",> 100 µM
same,GI50,"[20]; Homo sapiens, LOX IMVI",4.74 µM
same,CC50,"[20]; Homo sapiens, LOX IMVI, read-out: LC50 (the source's name)",> 100 µM
same,TGI,[20],>100 µM
same,GI50,"[21]; Homo sapiens, Melanoma M14",7.49 µM
same,CC50,"[21]; Homo sapiens, Melanoma M14, read-out: LC50 (the source's name)",> 100 µM
same,growth percentage,"[21]; M14 (Melanoma), 10 μM, 48 hours",-56.24%
same,TGI,[21]; Melanoma M14,>100 µM
same,GI50,"[22]; Homo sapiens, Melanoma MDA-MB-435",7.01 µM
same,CC50,"[22]; Homo sapiens, Melanoma MDA-MB-435, read-out: LC50 (the source's name)",> 100 µM
same,growth percentage,"[22]; MDA-MB-435 (Melanoma), 10 μM, 48 hours",-6.57%
same,TGI,[22]; Melanoma MDA-MB-435,>100 µM
same,GI50,"[23]; Homo sapiens, Melanoma SK-MEL-5",4.1 µM
same,CC50,"[23]; Homo sapiens, Melanoma SK-MEL-5, read-out: LC50 (the source's name)",> 100 µM
same,TGI,[23]; Melanoma SK-MEL-5,>100 µM
same,growth percentage,"[23]; SK-MEL-5 (Melanoma), 10 μM, 48 hours",59.18%
same,GI50,"[24]; Homo sapiens, Melanoma UACC-257",35.1 µM
same,CC50,"[24]; Homo sapiens, Melanoma UACC-257, read-out: LC50 (the source's name)",> 100 µM
same,TGI,[24]; Melanoma UACC-257,>100 µM
same,growth percentage,"[24]; UACC-257 (Melanoma), 10 μM, 48 hours",-39.24%
same,GI50,"[25]; Homo sapiens, Melanoma UACC-62",4.38 µM
same,CC50,"[25]; Homo sapiens, Melanoma UACC-62, read-out: LC50 (the source's name)",> 100 µM
same,TGI,[25]; Melanoma UACC-62,>100 µM
same,growth percentage,"[25]; UACC-62 (Melanoma), 10 μM, 48 hours",-81.71%
same,GI50,"[26]; Homo sapiens, IGROV-1, Ovarian Cancer IGROV1",5.94 µM
same,CC50,"[26]; Homo sapiens, IGROV-1, Ovarian Cancer IGROV1, read-out: LC50 (the source's name)",> 100 µM
same,growth percentage,"[26]; IGROV1 (Ovarian Cancer), 10 μM, 48 hours",3.23%
same,TGI,[26]; Ovarian Cancer IGROV1,>100 µM
same,growth percentage,"[27]; 786-0 (Renal Cancer), 10 μM, 48 hours",25.31%
same,GI50,"[27]; Homo sapiens, 786-0, Renal Cancer 786-O",23.5 µM
same,CC50,"[27]; Homo sapiens, 786-0, Renal Cancer 786-O, read-out: LC50 (the source's name)",> 100 µM
same,TGI,[27]; Renal Cancer 786-O,>100 µM
same,growth percentage,"[28]; A498 (Renal Cancer), 10 μM, 48 hours",59.79%
same,GI50,"[28]; Homo sapiens, Renal Cancer A498",2.63 µM
same,CC50,"[28]; Homo sapiens, Renal Cancer A498, read-out: LC50 (the source's name)",> 100 µM
same,TGI,[28]; Renal Cancer A498,>100 µM
same,growth percentage,"[29]; ACHN (Renal Cancer), 10 μM, 48 hours",-83.29%
same,GI50,"[29]; Homo sapiens, Renal Cancer ACHN",3.14 µM
same,CC50,"[29]; Homo sapiens, Renal Cancer ACHN, read-out: LC50 (the source's name)",> 100 µM
same,TGI,[29]; Renal Cancer ACHN,>100 µM
same,growth percentage,"[30]; CAKI-1 (Renal Cancer), 10 μM, 48 hours",17.84%
same,GI50,"[30]; Homo sapiens, Renal Cancer CAKI-1",2.52 µM
same,CC50,"[30]; Homo sapiens, Renal Cancer CAKI-1, read-out: LC50 (the source's name)",> 100 µM
same,TGI,[30]; Renal Cancer CAKI-1,>100 µM
same,growth percentage,[31],47.07%
same,GI50,"[32]; Homo sapiens, Prostate Cancer PC-3",5.93 µM
same,CC50,"[32]; Homo sapiens, Prostate Cancer PC-3, read-out: LC50 (the source's name)",> 100 µM
same,growth percentage,"[32]; PC-3 (Prostate Cancer), 10 μM, 48 hours",-58.51%
same,TGI,[32]; Prostate Cancer PC-3,>100 µM
same,growth percentage,"[33]; DU-145 (Prostate Cancer), 10 μM, 48 hours",-41.83%
same,GI50,"[33]; Homo sapiens, Prostate Cancer DU-145",4.79 µM
same,CC50,"[33]; Homo sapiens, Prostate Cancer DU-145, read-out: LC50 (the source's name)",> 100 µM
same,TGI,[33]; Prostate Cancer DU-145,>100 µM
same,growth percentage,"[34]; BT-549 (Breast Cancer), 10 μM, 48 hours",58.35%
same,TGI,[34]; Breast Cancer BT-549,>100 µM
same,GI50,"[34]; Homo sapiens, Breast Cancer BT-549",10.6 µM
same,CC50,"[34]; Homo sapiens, Breast Cancer BT-549, read-out: LC50 (the source's name)",> 100 µM
